Source: publication PMC9490041, “Determinants of affinity, specificity, and phase separation in a supramodule from Post-synaptic density protein 95” (iScience, 2022)
Read-outs that look alike come from different tables or passages of the source. Ends that are not written are not given here.

Legend:
Experiment in all cases: FP displacement (competition) of FITC-15 AA CRIPT by library peptide, IC50 and Ki
[1] = target: PSG G322A G335A (PSD-95); settings: for IC50: read-out: IC50 (µM), PSG G322A G335A
[2] = target: PSG G335A (PSD-95); settings: for IC50: read-out: IC50 (µM), PSG G335A; for Ki: read-out: Ki (µM), PSG G335A
[3] = target: PSG G322A (PSD-95); settings: for IC50: read-out: IC50 (µM), PSG G322A; for Ki: read-out: Ki (µM), PSG G322A
[4] = FP displacement of FITC-15 AA CRIPT probe by acetylated PSD library peptide (P-13 to P0 plus extra N-terminal Y)
[5] = read-out: Ki (µM), PSG G322A G335A, FP displacement of FITC-15 AA CRIPT probe by acetylated PSD library peptide
[6] = FP displacement of FITC-15 AA CRIPT probe by acetylated PSD library peptide
[7] = FP displacement of FITC-15 AA CRIPT probe by PSD library peptide, protein PSG G322A
[8] = FP displacement of FITC-15 AA CRIPT probe by PSD library peptide, protein PSG G335A
[9] = FP displacement of FITC-15 AA CRIPT probe by PSD library peptide, protein PSG G322A G335A
[10] = read-out: Ki (µM), PSG G322A G335A, FP displacement of FITC-15 AA CRIPT probe by PSD library peptide, protein PSG G322A G335A

Ac-YQETLFVGNDQVSEI [TM108]
IC50 [1, 4]: 1070 µM
Ki [1, 5]: 370 µM

CC[C@H](C)[C@H](NC(=O)[C@H](CO)NC(=O)[C@@H](NC(=O)[C@@H](NC(=O)[C@@H]1CCCN1C(=O)[C@H](CC(C)C)NC(=O)[C@H](C)NC(=O)[C@@H]1CCCN1C(=O)[C@H](Cc1ccc(O)cc1)NC(C)=O)[C@@H](C)O)C(C)C)C(=O)N[C@@H](CO)C(=O)N[C@@H](CO)C(=O)N[C@@H](CO)C(=O)N[C@@H](C)C(=O)N[C@@H](CCC(=O)O)C(=O)N[C@H](C(=O)O)C(C)C [DOC10]
IC50 [2, 6]: 2010 µM
Ki [2, 6]: 718 µM
IC50 [3, 6]: 1460 µM
Ki [3, 6]: 634 µM
IC50 [1, 4]: 2020 µM
Ki [1, 5]: 698 µM

CC[C@H](C)[C@H](NC(=O)[C@H](CC(=O)O)NC(=O)[C@H](CCC(N)=O)NC(=O)CNC(=O)[C@@H](NC(=O)[C@H](CC(C)C)NC(=O)[C@@H]1CCCN1C(=O)[C@H](Cc1ccc(O)cc1)NC(C)=O)C(C)C)C(=O)N[C@H](C(=O)N[C@@H](CC(=O)O)C(=O)N[C@@H](CC(C)C)C(=O)N[C@@H](CCC(N)=O)C(=O)N[C@H](C(=O)N[C@@H](CCC(=O)O)C(=O)N[C@H](C(=O)O)C(C)C)[C@@H](C)O)[C@@H](C)CC [ADGRB1]
IC50 [2, 6]: 245 µM
Ki [2, 6]: 87 µM
IC50 [3, 6]: 258 µM
Ki [3, 6]: 112 µM
Ki ([1]; FP displacement of 5 nM FITC-15 AA CRIPT by non-labeled acetylated peptide, room temperature, Ki from IC50, PSG G322A G335A): 39 µM
IC50 [1, 4]: 112 µM

CC(=O)N[C@@H](Cc1ccc(O)cc1)C(=O)N[C@@H](CC(C)C)C(=O)N[C@@H](Cc1c[nH]cn1)C(=O)NCC(=O)N[C@@H](Cc1c[nH]cn1)C(=O)N[C@@H](CCCNC(=N)N)C(=O)N[C@@H](Cc1ccc(O)cc1)C(=O)N[C@@H](CO)C(=O)N[C@@H](CO)C(=O)NCC(=O)N[C@@H](CO)C(=O)N[C@@H](CCCNC(=N)N)C(=O)N[C@@H](CO)C(=O)N[C@@H](CC(C)C)C(=O)N[C@H](C(=O)O)C(C)C [IQEC3]
IC50 [2, 6]: 673 µM
Ki [2, 6]: 240 µM
IC50 [3, 6]: 660 µM
Ki [3, 6]: 286 µM
IC50 [1, 4]: 570 µM
Ki [1, 5]: 197 µM

Ac-YVMQDESFPASKIEL [MAP1B]
IC50 [3, 7]: 914 µM
Ki [3, 7]: 396 µM

Ac-YEKAASREEPIEWEF [CUX1]
IC50 [2, 8]: 1360 µM
Ki [2, 8]: 485 µM
IC50 [3, 7]: 1560 µM
Ki [3, 7]: 679 µM
IC50 [1, 9]: 1280 µM

CC(=O)N[C@@H](Cc1ccc(O)cc1)C(=O)N[C@@H](C)C(=O)N1CCC[C@H]1C(=O)N[C@@H](C)C(=O)N[C@H](C(=O)N[C@@H](CO)C(=O)N1CCC[C@H]1C(=O)N1CCC[C@H]1C(=O)N[C@@H](CCC(=O)O)C(=O)N[C@@H](CCCNC(=N)N)C(=O)N[C@@H](C)C(=O)N[C@@H](CC(C)C)C(=O)N[C@@H](CO)C(=O)N[C@@H](CCCCN)C(=O)N[C@@H](CC(C)C)C(=O)O)[C@@H](C)O [TUTLB]
IC50 [2, 6]: 721 µM
Ki [2, 6]: 257 µM
IC50 [3, 6]: 1730 µM
Ki [3, 6]: 752 µM
IC50 [1, 4]: 1810 µM
Ki [1, 5]: 625 µM

Ac-YQEQNKVLWIPASPL [DLG5]
IC50 [2, 6]: 1020 µM
Ki [2, 6]: 365 µM
IC50 [3, 6]: 1510 µM
Ki [3, 6]: 654 µM
IC50 [1, 4]: 2830 µM
Ki [1, 5]: 979 µM

CC[C@H](C)[C@H](NC(=O)[C@H](CCCNC(=N)N)NC(=O)[C@H](CCCNC(=N)N)NC(=O)[C@H](CCC(N)=O)NC(=O)[C@H](CC(N)=O)NC(=O)[C@H](CC(C)C)NC(=O)CNC(=O)[C@H](CO)NC(=O)[C@H](Cc1ccc(O)cc1)NC(=O)[C@H](CC(C)C)NC(=O)[C@H](CC(=O)O)NC(=O)[C@H](CCCNC(=N)N)NC(=O)[C@H](CCC(N)=O)NC(=O)CNC(=O)[C@H](Cc1ccc(O)cc1)NC(C)=O)C(=O)O [CD3E]
IC50 [3, 7]: 757 µM
Ki [3, 7]: 328 µM

CC(=O)N[C@@H](Cc1ccc(O)cc1)C(=O)N[C@H](C(=O)N[C@@H](CCC(=O)O)C(=O)N[C@@H](CO)C(=O)N[C@@H](CC(C)C)C(=O)N[C@@H](CO)C(=O)N[C@@H](CO)C(=O)N[C@@H](CCC(=O)O)C(=O)N[C@@H](CO)C(=O)N[C@H](C(=O)N[C@@H](C)C(=O)N[C@H](C(=O)N[C@@H](CO)C(=O)N1CCC[C@H]1C(=O)N[C@H](C(=O)O)C(C)C)[C@@H](C)O)[C@@H](C)O)C(C)C [TNR16]
IC50 [3, 6]: 867 µM
Ki [3, 6]: 376 µM
IC50 [1, 4]: 880 µM
Ki [1, 5]: 304 µM

Ac-YEPPEPKKSRRSVLL [CDC42]
IC50 [2, 8]: 1180 µM
Ki [2, 8]: 421 µM
IC50 [3, 7]: 952 µM
IC50 [1, 9]: 1100 µM
Ki [1, 10]: 381 µM

CC[C@H](C)[C@H](NC(=O)[C@H](CCC(=O)O)NC(=O)[C@@H](NC(=O)[C@H](C)NC(=O)[C@@H](NC(=O)[C@@H](NC(=O)[C@H](CC(=O)O)NC(=O)[C@H](CCC(=O)O)NC(=O)[C@H](Cc1ccc(O)cc1)NC(=O)[C@@H]1CCCN1C(=O)[C@@H](NC(=O)[C@H](CC(=O)O)NC(=O)[C@H](C)NC(=O)CNC(=O)[C@H](Cc1ccc(O)cc1)NC(C)=O)[C@@H](C)CC)[C@@H](C)CC)[C@@H](C)CC)[C@@H](C)O)C(=O)O [LZTS1]
IC50 [2, 8]: 648 µM
Ki [2, 8]: 231 µM
IC50 [1, 9]: 1120 µM
Ki [1, 10]: 388 µM

CC(=O)N[C@@H](Cc1ccc(O)cc1)C(=O)N[C@@H](Cc1ccc(O)cc1)C(=O)N[C@@H](CCC(=O)O)C(=O)N[C@H](C(=O)N[C@@H](CO)C(=O)N[C@@H](Cc1c[nH]cn1)C(=O)N[C@@H](Cc1ccc(O)cc1)C(=O)N1CCC[C@H]1C(=O)N[C@@H](C)C(=O)N[C@@H](CO)C(=O)N1CCC[C@H]1C(=O)N[C@@H](CC(=O)O)C(=O)N[C@@H](CO)C(=O)N[C@@H](Cc1c[nH]c2ccccc12)C(=O)N[C@H](C(=O)O)C(C)C)[C@@H](C)O [CTND2]
IC50 [2, 8]: 1020 µM
Ki [2, 8]: 364 µM
IC50 [3, 7]: 694 µM
Ki [3, 7]: 301 µM
IC50 [1, 9]: 465 µM
Ki [1, 10]: 161 µM

Ac-YERAANREEALEWEF [CUX2]
IC50 [3, 7]: 701 µM
Ki [3, 7]: 304 µM
Ki [1, 10]: 351 µM

CSCC[C@H](NC(=O)[C@H](CC(N)=O)NC(=O)[C@H](CCCCN)NC(=O)[C@H](CC(C)C)NC(=O)[C@@H](NC(=O)[C@H](CC(=O)O)NC(=O)[C@H](Cc1ccc(O)cc1)NC(C)=O)C(C)C)C(=O)N[C@H](C(=O)N[C@@H](CC(=O)O)C(=O)N[C@@H](CCCCN)C(=O)N[C@@H](C)C(=O)N1CCC[C@H]1C(=O)N1CCC[C@H]1C(=O)NCC(=O)N[C@H](C(=O)O)C(C)C)[C@@H](C)O [CK2N1]
IC50 [3, 6]: 824 µM
Ki [3, 6]: 357 µM
IC50 [1, 4]: 940 µM
Ki [1, 5]: 325 µM

Ac-YQSGPFIWIPSKEKL [DLG2]
IC50 [2, 6]: 2120 µM
Ki [2, 6]: 758 µM
IC50 [3, 6]: 1420 µM
Ki [3, 6]: 615 µM
IC50 [1, 4]: 734 µM
Ki [1, 5]: 254 µM

CC(=O)N[C@@H](Cc1ccc(O)cc1)C(=O)N[C@@H](CC(=O)O)C(=O)N[C@@H](CCCCN)C(=O)N[C@@H](CCCNC(=N)N)C(=O)N[C@@H](CC(=O)O)C(=O)N[C@@H](CO)C(=O)N[C@@H](CCC(=O)O)C(=O)N[C@@H](CCC(=O)O)C(=O)N[C@@H](CCC(=O)O)C(=O)N[C@@H](CO)C(=O)N[C@@H](CCC(=O)O)C(=O)N[C@@H](CO)C(=O)N[C@H](C(=O)N[C@@H](C)C(=O)N[C@@H](CC(C)C)C(=O)O)[C@@H](C)O [RHG44]
IC50 [3, 7]: 1210 µM
Ki [3, 7]: 526 µM
IC50 [1, 9]: 944 µM
Ki [1, 10]: 327 µM

Ac-YYETGSLSFAGDERI [SEZ6]
IC50 [1, 9]: 1700 µM
Ki [1, 10]: 590 µM

CC(=O)N[C@@H](Cc1ccc(O)cc1)C(=O)N[C@@H](Cc1ccccc1)C(=O)N[C@H](C(=O)N[C@@H](Cc1ccc(O)cc1)C(=O)N[C@@H](Cc1c[nH]cn1)C(=O)N[C@H](C(=O)N[C@@H](CO)C(=O)N[C@@H](CC(=O)O)C(=O)NCC(=O)N[C@@H](CC(=O)O)C(=O)N[C@@H](C)C(=O)N[C@@H](CC(C)C)C(=O)N[C@@H](CC(C)C)C(=O)N[C@@H](CC(C)C)C(=O)N[C@@H](CC(C)C)C(=O)O)[C@@H](C)O)[C@@H](C)O [CX3C1]
IC50 [1, 9]: 740 µM
Ki [1, 10]: 256 µM
